This is an account of results in ChEMBL document CHEMBL5506042, “Discovery of the Clinical Candidate IDOR-1117-2520: A Potent and Selective Antagonist of CCR6 for Autoimmune Diseases” (J Med Chem, 2024).

Molecules are shown by their SMILES.

The nature of series [1]: Intrinsic clearance in human liver microsomes at 1 uM measured for 15 mins in presence of NADPH regenerating system measured per mg protein by LC-MS/MS analysis. The format is ADME, Microsome. Conditions: read-out: CLH.
For series [2], the target named is T1, C-C chemokine receptor type 6 (Homo sapiens, UniProt P51684).
T1 sequence (P51684 whole entry): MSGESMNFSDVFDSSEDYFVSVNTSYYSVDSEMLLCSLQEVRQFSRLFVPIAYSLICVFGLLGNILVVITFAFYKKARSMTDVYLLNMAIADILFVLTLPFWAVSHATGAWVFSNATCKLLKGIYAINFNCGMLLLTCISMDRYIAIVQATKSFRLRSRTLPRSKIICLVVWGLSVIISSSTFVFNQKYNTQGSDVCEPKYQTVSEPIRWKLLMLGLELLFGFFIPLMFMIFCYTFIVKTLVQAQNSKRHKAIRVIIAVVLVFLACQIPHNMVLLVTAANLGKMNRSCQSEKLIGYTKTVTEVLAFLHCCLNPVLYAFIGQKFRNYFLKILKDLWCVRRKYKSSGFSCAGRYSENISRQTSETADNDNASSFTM
Briefly: Antagonist activity at human CCR6 expressed in HEK293 cells assessed as inhibition of CCL20-stimulated intracellular calcium mobilization by Fluo-8-AM based FLIPR analysis. In general terms: Calcium flux is commonly read through the fluorescence of an indicator in the cells.

Series [3] addresses Voltage-gated inwardly rectifying potassium channel KCNH2 (Homo sapiens, UniProt Q12809). Put plainly: Inhibition of hERG expressed in CHO cells assessed as inhibition of channel current at holding potential of -80 mV by QPatch assay. (In general: The hERG channel carries a current that helps repolarise heart muscle cells.)
A short description of series [4]: Drug metabolism in human liver microsomes assessed as dGSH trapping by measuring reactive metabolite formation at 10 uM measured after 60 mins in presence of dGSH and NADPH regenerating system by LC-MS/MS analysis. The format is ADME, Microsome. The conditions noted are these: 1 h. On the technique in general: Microsomes from liver hold many membrane-bound enzymes, among them those of drug oxidation.

Series [5] is described as follows: Cytotoxicity against human HepG2 cells assessed as reduction in cell viability incubated for 72 hrs by CellTiter-Glo assay.
Series [6] can be described thus: Dissociation constant, pKa of the compound by potentiometric titration based UV-Vis spectrophotometry.
Series [7] can be described thus: Lipophilicity, LogD of the compound in 1-Octanol/PBS at pH 7.4 by miniaturized shake flask method.
Another series concerns HepaRG. Put plainly: Cytotoxicity against human HepaRG cells assessed as leakage of intracellular LDH at 100 uM incubated for 24 hrs by spectrophotometry. The series is classed as toxicity, cell-based.

In general, IC50 refers to the concentration that inhibits the measured activity by half. A word on the pKa: it is the negative logarithm of the acid dissociation constant. Low readings indicate a group that gives up its proton readily, high ones a group that holds its proton tightly. One may read the logD as the decadic logarithm of the distribution of all forms, ionised or not, between an organic phase and buffer at a given pH.

Voltage-gated inwardly rectifying potassium channel KCNH2, sequence (Q12809 whole entry): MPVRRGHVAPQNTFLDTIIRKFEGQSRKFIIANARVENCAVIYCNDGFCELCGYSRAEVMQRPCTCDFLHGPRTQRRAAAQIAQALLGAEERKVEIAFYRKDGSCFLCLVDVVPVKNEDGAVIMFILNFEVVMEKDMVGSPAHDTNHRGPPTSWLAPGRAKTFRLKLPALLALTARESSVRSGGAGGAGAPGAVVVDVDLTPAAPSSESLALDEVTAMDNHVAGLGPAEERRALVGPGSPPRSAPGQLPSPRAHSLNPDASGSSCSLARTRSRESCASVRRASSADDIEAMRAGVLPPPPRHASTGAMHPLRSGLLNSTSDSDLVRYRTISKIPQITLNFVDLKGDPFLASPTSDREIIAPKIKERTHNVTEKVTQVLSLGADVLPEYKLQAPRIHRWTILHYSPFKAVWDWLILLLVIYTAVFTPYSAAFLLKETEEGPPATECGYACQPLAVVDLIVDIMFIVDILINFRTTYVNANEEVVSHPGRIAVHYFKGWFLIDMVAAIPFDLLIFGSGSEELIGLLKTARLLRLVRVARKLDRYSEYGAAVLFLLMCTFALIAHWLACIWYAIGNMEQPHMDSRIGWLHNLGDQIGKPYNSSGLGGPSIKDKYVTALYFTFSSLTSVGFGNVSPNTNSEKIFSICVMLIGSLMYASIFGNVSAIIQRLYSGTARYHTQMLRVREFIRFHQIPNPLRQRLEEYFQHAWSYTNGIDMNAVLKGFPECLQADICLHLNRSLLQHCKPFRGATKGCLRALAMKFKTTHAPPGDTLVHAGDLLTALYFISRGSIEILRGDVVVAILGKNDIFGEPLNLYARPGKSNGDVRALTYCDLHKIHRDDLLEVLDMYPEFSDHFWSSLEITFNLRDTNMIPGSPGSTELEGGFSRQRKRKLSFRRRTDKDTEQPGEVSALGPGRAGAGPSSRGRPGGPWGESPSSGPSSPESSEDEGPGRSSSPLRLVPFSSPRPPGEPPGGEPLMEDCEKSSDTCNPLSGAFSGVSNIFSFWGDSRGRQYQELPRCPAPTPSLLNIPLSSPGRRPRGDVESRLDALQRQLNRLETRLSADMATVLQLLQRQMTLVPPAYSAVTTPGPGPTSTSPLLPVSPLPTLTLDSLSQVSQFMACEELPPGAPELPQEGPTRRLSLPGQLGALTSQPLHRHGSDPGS

Regarding `CC(C)c1ccc([C@](O)(c2cccc(-c3noc(C(C)(O)C(F)(F)F)n3)c2)C2(C)CN(C)C2)cc1` (stereo partly specified), the microsomal CLint at […], 1 µM in series [1] was 15 µL/min/mg.

With `CC(=O)N1CC(C)(C(O)(c2ccccc2)c2ccc(OC(F)(F)F)cc2)C1` (stereo unspecified), the IC50 in series [2] and in series [3] was more than 20 µM in each case. As for `CC(C)c1ccc([C@](O)(c2cncc(N3CC[C@H](C(C)(C)O)C3)c2)C2(C)CN(C)C2)cc1`, the Drug metabolism in series [4] is less than 100 pmol/mg/h. `CC(C)c1ccc([C@](O)(c2cncc(N3CCCC3)c2)C2(C)CN(C)C2)cc1`: the Drug metabolism in series [4] stood at 162 pmol/mg/h. Still for that read-out and setting: the value for `CC(C)c1ccc([C@](O)(c2cncc(N3CC[C@H](O)C3)c2)C2(C)CN(C)C2)cc1` was 504 pmol/mg/h. Take `CC(C)c1ccc([C@](O)(c2cccc(-c3noc(C4CCOCC4)n3)c2)C2(C)CN(C)C2)cc1`: the Drug metabolism in series [4] stood at 167 pmol/mg/h. The microsomal CLint at […], 1 µM in series [1] was 26 µL/min/mg. On to `CC(C)c1ccc([C@](O)(c2cncc(N3CCCC3=O)c2)C2(C)CN(C)C2)cc1`, for which, in series [4], the Drug metabolism was less than 100 pmol/mg/h. Turning to `CC(C)c1ccc([C@](O)(c2cncc(N3CC[C@](C)(O)C3)c2)C2(C)CN(C)C2)cc1`, the Drug metabolism in series [4] worked out at 392 pmol/mg/h. The same measure, in the same setting: the result for `CC(C)c1ccc([C@](O)(c2cncc(N3C[C@@H](F)[C@@H](F)C3)c2)C2(C)CN(C)C2)cc1` reads less than 100 pmol/mg/h. Turning to `CC(C)c1ccc([C@](O)(c2cnnc(N3CCCC3)c2)C2(C)CN(C)C2)cc1`, the Drug metabolism in series [4] came to 323 pmol/mg/h. For the same compound, the microsomal CLint at […], 1 µM in series [1] was determined as 475 µL/min/mg. In the case of `CC(C)c1ccc([C@](O)(c2cccc(-c3noc(CC(C)(C)O)n3)c2)C2(C)CN(C)C2)cc1`, in series [1], the microsomal CLint at […], 1 µM amounted to 20 µL/min/mg. On to `CN1CCC(C)(C(O)(c2ccccc2)c2ccc(OC(F)(F)F)cc2)C1` (stereo unspecified), for which the IC50 in series [2] was 1.44 µM. The same measure, in the same setting: the value for `CCCC1(C(O)(c2ccccc2)c2ccc(OC(F)(F)F)cc2)CN(C)C1` (stereo unspecified) was more than 20 µM. For `CC(C)c1ccc([C@](O)(c2cncc(N3CC4CC(C3)O4)c2)C2(C)CN(C)C2)cc1`, the Drug metabolism in series [4] is less than 100 pmol/mg/h. Also, in series [1], the microsomal CLint at […], 1 µM came to 20 µL/min/mg.

Regarding `CC(C)c1ccc([C@](O)(c2cccc(-c3noc(C4(O)CCC4)n3)c2)C2(C)CN(C)C2)cc1`, the microsomal CLint at […], 1 µM in series [1] came out at 35 µL/min/mg. Turning to `CC(C)c1ccc([C@](O)(c2cncc(N3CC[C@@H](O)C3)c2)C2(C)CN(C)C2)cc1`, in series [4], the Drug metabolism worked out at 541 pmol/mg/h. Regarding `CC(C)c1ccc([C@](O)(c2cnnc(N3CC4(CC4)CC3=O)c2)C2(C)CN(C)C2)cc1`, in series [4], the Drug metabolism was less than 100 pmol/mg/h. Moreover, the microsomal CLint at […], 1 µM in series [1] is less than 10 µL/min/mg. `CN1CC(C(O)(c2ccccc2)c2ccc(OC(F)(F)F)cc2)C1` (stereo unspecified): the values for the IC50 in series [2] and in series [3] were 9.29 µM and 0.52 µM, respectively. Regarding `CC(C)c1ccc([C@](O)(c2cncc(N3CCOCC3)c2)C2(C)CN(C)C2)cc1`, in series [4], the Drug metabolism was 1021 pmol/mg/h. In series [1], the microsomal CLint at […], 1 µM is 138 µL/min/mg.

Regarding `CN1CC(C)(C(O)(c2ccc(OC(F)(F)F)cc2)c2cnnc(N3CCCC3)c2)C1` (racemic), the IC50 at 72 h in series [5] was more than 25 µM. Still for that read-out and setting: the result for `CC(C)COc1cccc(C(O)(c2ccc(OC(F)(F)F)cc2)C2(C)CN(C)C2)c1` (racemic) reads 10 µM; that for `CN1CC(C)(C(O)(c2ccc(OC(F)(F)F)cc2)c2cccc(N3CCCC3)c2)C1` (racemic), 5 µM. For `COc1cccc(C(O)(c2ccc(OC(F)(F)F)cc2)C2(C)CN(C)C2)c1` (racemic), the IC50 at 72 h in series [5] was more than 25 µM. Besides, the IC50 in series [3] is 0.22 µM.

As to `COc1cncc(C(O)(c2ccc(OC(F)(F)F)cc2)C2(C)CN(C)C2)c1` (racemic), in series [5], the IC50 at 72 h is more than 25 µM. Compound `CN1CC(C#N)(C(O)(c2ccc(OC(F)(F)F)cc2)c2cccc(Cl)c2)C1` (racemic) had a pKa in series [6] of 6.4. The IC50 in series [2] is 0.763 µM. The compound `CN1CC(F)(C(O)(c2ccc(OC(F)(F)F)cc2)c2cccc(Cl)c2)C1` (racemic) showed a pKa in series [6] of 7.9. This compound also had a logD in series [7] of more than 4.1. Also, the IC50 in series [3] worked out at 0.19 µM. In series [6], `CN1CC(CO)(C(O)(c2ccc(OC(F)(F)F)cc2)c2cccc(Cl)c2)C1` (racemic) yielded a pKa of 9.1. The compound further displayed a logD in series [7] of 2.1. Also, the IC50 came out at 3.52 µM in series [2] and 0.56 µM in series [3]. As to `CN1CC(C)(C(O)(c2ccc(OC(F)(F)F)cc2)c2ccnc(N3CCCC3)c2)C1` (racemic), in series [5], the IC50 at 72 h turned out to be 9.2 µM.

In series [6], `CN1CC(O)(C(O)(c2ccc(OC(F)(F)F)cc2)c2cccc(Cl)c2)C1` (racemic) yielded a pKa of 8.8. In addition, in series [7], the logD came to 2.7. Further, the IC50 in series [2] stood at 2.06 µM; in series [3], 1.9 µM. Take `CC(C)c1ccc(C(O)(c2cccc(N3CCCC3)n2)C2(C)CN(C)C2)cc1` (racemic): in series [2], the IC50 was 1.21 µM. On the same count and under the same terms, the result for `CN1CC(C)(C(O)(c2ccc(OC(F)(F)F)cc2)c2ccccc2Cl)C1` (racemic) reads 8.8 µM. As to `CN1CC(C)(C(O)(c2ccc(Cl)cc2)c2ccc(OC(F)(F)F)cc2)C1` (racemic), the IC50 at 72 h in series [5] was found to be 9.4 µM. `CN1CC(C(N)=O)(C(O)(c2ccc(OC(F)(F)F)cc2)c2cccc(Cl)c2)C1` (racemic): in series [6], the pKa stood at 8.1. For the same compound, the IC50 in series [2] came out at 1.66 µM; in series [3] it was 3.3 µM. With `CCOc1cncc(C(O)(c2ccc(OC(F)(F)F)cc2)C2(C)CN(C)C2)c1` (racemic), the IC50 at 72 h in series [5] is more than 25 µM. In series [7], this compound displayed a logD of 1.9. In addition, the Activity entry in the series on HepaRG is “Non-Toxic”. Take `CC(C)c1ccc(C(O)(c2cccc(-c3nc(C4CCOCC4)no3)c2)C2(C)CN(C)C2)cc1` (single isomer, unassigned): the microsomal CLint at […], 1 µM in series [1] turned out to be 68 µL/min/mg.
